Measurements reported in ChEMBL document CHEMBL1201862, “PubChem BioAssay data set” (2004).
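Test compounds were applied to cells in 96-well plates for 48 hours at 5 doses. GI50 is the concentration that inhibits growth by half.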 The source made the active and inactive calls. No stated cut-off is given here; in the data, active = GI50 up to about 1.1 µM and inactive = higher.

Tests used:
Assay in all cases: DTP human tumour cell line panel, 48 h
[1] = system: SF-539
[2] = system: ACHN
[3] = system: HOP-92
[4] = system: SK-MEL-28
[5] = system: UACC-257
[6] = system: SN12C
[7] = system: A549
[8] = system: SK-MEL-5
[9] = system: TK-10
[10] = system: K562
[11] = system: HCC 2998
[12] = system: EKVX
[13] = system: UACC-62
[14] = system: SNB-19
[15] = system: COLO 205
[16] = system: KM12
[17] = system: NCI-H460

Measured: GI50

O=C(Cc1nc2ccccc2s1)C(=O)Nc1cccc(Cl)c1
inactive: [1] > 100 µM | [2] > 100 µM | [3] > 100 µM | [4] > 100 µM | [5] > 100 µM | [6] > 100 µM | [7] > 100 µM | [8] > 100 µM | [9] > 100 µM | [10] > 100 µM | [11] > 100 µM | [12] > 100 µM | [13] > 100 µM | [14] > 100 µM | [15] > 100 µM | [16] > 100 µM

Cc1nc2sccn2c1C(=O)NC(=O)Nc1ccc(Cl)cc1
inactive: [1] 41.2 µM | [2] > 100 µM | [3] 31.2 µM | [4] > 100 µM | [5] > 100 µM | [6] > 100 µM | [7] 57.4 µM | [8] > 100 µM | [9] 30.9 µM | [10] > 100 µM | [11] > 100 µM | [12] > 100 µM | [17] > 100 µM | [13] > 100 µM | [14] 42.2 µM | [15] > 100 µM | [16] > 100 µM

O=CC1=CCCC2(C1)OCCO2
inactive: [1] > 100 µM | [3] > 100 µM | [4] > 100 µM | [5] > 100 µM | [6] > 100 µM | [7] > 100 µM | [8] > 100 µM | [9] > 100 µM | [10] > 100 µM | [11] > 100 µM | [12] > 100 µM | [17] > 100 µM | [13] > 100 µM | [14] > 100 µM | [15] > 100 µM | [16] > 100 µM

Cc1cccc(-c2nnc3s/c(=C\c4ccc5c(c4)OCO5)c(=O)n23)c1
inactive: [1] > 100 µM | [2] > 100 µM | [3] > 100 µM | [4] > 100 µM | [5] 29.8 µM | [6] > 100 µM | [7] > 100 µM | [8] > 100 µM | [9] > 100 µM | [10] > 100 µM | [11] > 100 µM | [12] > 100 µM | [17] > 100 µM | [13] > 100 µM | [14] > 100 µM | [15] > 100 µM | [16] > 100 µM

Nc1c2ccccc2nc2c(C(=O)Nc3ccc(S(N)(=O)=O)cc3)cccc12
inactive: [1] 13.2 µM | [2] > 100 µM | [4] > 100 µM | [5] > 100 µM | [6] > 100 µM | [7] > 100 µM | [8] 86.3 µM | [9] > 100 µM | [10] 28.6 µM | [11] > 100 µM | [12] > 100 µM | [17] > 100 µM | [13] 97.5 µM | [14] 92.3 µM | [15] > 100 µM | [16] 32.1 µM
